Measured values: BindingDB's records for doi:10.7270/Q2PR7TCX (The Scripps Research Institute Molecular Screening Center, 2007)
Counter-ions that a name gives are not always drawn.

molecular target: Steroidogenic factor 1 (Homo sapiens, UniProt Q13285); assay: inhibition of SF-1 LBD-driven luciferase – cell-based, CHO-K1, Gal4-SF-1 LBD, luciferase luminescence, counter-screen for RORA inhibitor project, dose response (AID 611); details: not given
Sequence (Q13285 whole entry, the tested form may be a part): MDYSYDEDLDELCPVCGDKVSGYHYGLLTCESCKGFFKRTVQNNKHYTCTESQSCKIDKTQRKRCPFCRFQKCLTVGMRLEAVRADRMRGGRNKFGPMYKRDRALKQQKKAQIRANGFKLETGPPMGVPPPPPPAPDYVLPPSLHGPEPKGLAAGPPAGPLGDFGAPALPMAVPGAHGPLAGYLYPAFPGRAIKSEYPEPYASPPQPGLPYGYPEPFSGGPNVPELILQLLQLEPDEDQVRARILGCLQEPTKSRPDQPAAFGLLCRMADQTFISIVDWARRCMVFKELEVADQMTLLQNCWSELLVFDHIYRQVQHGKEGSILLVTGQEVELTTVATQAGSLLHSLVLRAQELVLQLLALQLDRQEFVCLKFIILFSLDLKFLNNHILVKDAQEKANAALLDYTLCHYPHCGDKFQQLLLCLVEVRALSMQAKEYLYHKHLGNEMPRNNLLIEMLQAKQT

Row | IC50 [µM] | Structure (SMILES)
1 | 4 | O=C(Nc1nc(-c2ccccn2)cs1)c1ccc(Cl)s1 [5-chloranyl-N-(4-pyridin-2-yl-1,3-thiazol-2-yl)thiophene-2-carboxamide]
2 | 5.33 | Cc1ccc(S(=O)(=O)Nc2cccc3ncccc23)s1 [5-methyl-N-quinolin-5-ylthiophene-2-sulfonamide]
3 | 8.96 | O=S(=O)(c1ccccc1)N1CCN(c2cc(-c3ccccc3)nc3ncnn23)CC1 [5-phenyl-7-[4-(phenylsulfonyl)piperazin-1-yl]-[1,2,4]triazolo[1,5-a]pyrimidine]
4 | 3.18 | Cn1nc(C(C)(C)C)cc1C(=O)NCc1ccc(N2CCCC2=O)cc1 [5-tert-Butyl-2-methyl-2H-pyrazole-3-carboxylic acid 4-(2-oxo-pyrrolidin-1-yl)-benzylamide]
5 | 4.43 | O=S1(=O)Nc2c(ccc3cccnc23)-c2ccccc21 [5H-quinolino[8,7-c][1,2]benzothiazine 6,6-dioxide]
6 | 6.66 | COC(=O)C1C(=CN2CCCc3ccccc32)NC(=O)NC1c1ccc(F)cc1 (stereo not drawn) [6-(3,4-dihydro-2H-quinolin-1-ylmethyl)-4-(4-fluorophenyl)-2-keto-3,4-dihydro-1H-pyrimidine-5-carboxylic acid methyl ester]
7 | 8.07 | C[S+]([O-])c1nc(-c2ccc(Br)cc2)cc(-c2ccccc2)c1C#N (stereo not drawn) [6-(4-bromophenyl)-2-(methylsulfinyl)-4-phenylnicotinonitrile]
8 | 0.39 | CCOc1ccc(C2=Nn3c(nnc3-c3ccccc3OC)SC2)cc1 [6-(4-ethoxyphenyl)-3-(2-methoxyphenyl)-7H-[1,2,4]triazolo[3,4-b][1,3,4]thiadiazine]
9 | 1.73 | CCc1ccc(-c2cn3nc(C)c(C)nc3n2)cc1 [6-(4-ethylphenyl)-2,3-dimethyl-imidazo[1,2-b][1,2,4]triazine]
10 | > 99 | O=C(O)CCCCCn1c(O)csc1=S [6-(4-keto-2-thioxo-thiazolidin-3-yl)hexanoic acid]
11 | 5.29 | CC(C)Cn1c(N)c(C(=O)CSc2ccc3c(c2)OCCO3)c(=O)n(C)c1=O [6-amino-5-[2-(2,3-dihydro-1,4-benzodioxin-6-ylsulfanyl)acetyl]-3-methyl-1-(2-methylpropyl)pyrimidine-2,4-dione]
12 | 4.15 | Cc1ccc(Nc2cc(C)nn2-c2nc(C)cc(O)n2)cc1 [6-methyl-2-[3-methyl-5-(4-methylanilino)pyrazol-1-yl]-1H-pyrimidin-4-one]
13 | 1.93 | Cc1ccc2nc(-c3ccccc3)cn2c1 [6-methyl-2-phenyl-imidazo[1,2-a]pyridine;hydrobromide]
14 | 6.06 | Cn1c(-c2ccccc2)cc2c3no[n+]([O-])c3ccc21 [6-methyl-3-oxidanidyl-7-phenyl-pyrrolo[2,3-g][2,1,3]benzoxadiazol-3-ium]
15 | 7.59 | COc1cccc(-c2nnc3n2N=C(C(C)(C)C)CS3)c1 [6-tert-butyl-3-(3-methoxyphenyl)-7H-[1,2,4]triazolo[3,4-b][1,3,4]thiadiazine]
16 | > 33 | C=CCOc1nc2c(c(=O)n(C)c(=O)n2C)n1Cc1ccc(Cl)cc1Cl [7-[(2,4-dichlorophenyl)methyl]-1,3-dimethyl-8-prop-2-enoxy-purine-2,6-dione]
17 | > 11 | C=CCOc1nc2c(c(=O)n(C)c(=O)n2C)n1Cc1ccc(Cl)cc1 [7-[(4-chlorophenyl)methyl]-1,3-dimethyl-8-prop-2-enoxy-purine-2,6-dione]
18 | 1.44 | COc1cccc(N2CCN(c3ncnc4c3[nH]c3ccc(F)cc34)CC2C)c1 (stereo not drawn) [8-fluoranyl-4-[4-(3-methoxyphenyl)-3-methyl-piperazin-1-yl]-5H-pyrimido[5,4-b]indole]
19 | 6.07 | Cc1nnc(SC(=O)N2c3ccccc3Sc3ccccc32)s1 [10-phenothiazinecarbothioic acid S-(5-methyl-1,3,4-thiadiazol-2-yl) ester]
20 | 5.18 | O=C(OC1CCOC1=O)c1ccc(-c2nc3ccccc3s2)s1 (stereo not drawn) [(2-oxidanylideneoxolan-3-yl) 5-(1,3-benzothiazol-2-yl)thiophene-2-carboxylate]
21 | 3.32 | O=C1C(=CNc2ccc3c(c2)OCO3)CCc2ccccc21 [(2E)-2-[(1,3-benzodioxol-5-ylamino)methylene]tetralin-1-one]
22 | 3.89 | COc1cccc2sc(Nc3nc(-c4ccccn4)cs3)nc12 [(4-methoxy-1,3-benzothiazol-2-yl)-[4-(2-pyridyl)thiazol-2-yl]amine]

Row | IC50 [µM] | Structure (SMILES)
23 | 1.94 | CN=c1scc(C)n1N=Cc1ccc(O)cc1O [(4E)-4-[[(4-methyl-2-methylimino-1,3-thiazol-3-yl)amino]methylidene]-3-oxidanyl-cyclohexa-2,5-dien-1-one]
24 | 6.45 | COc1ccc(CCNc2c(C)c(C)nc3ncnn23)cc1 [(5,6-Dimethyl-[1,2,4]triazolo[1,5-a]pyrimidin-7-yl)-[2-(4-methoxy-phenyl)-ethyl]-amine]
25 | 0.409 | COc1cccc2c1C(=O)c1c(O)c3c(c(O)c1C2=O)C[C@@](O)(C(C)=O)C[C@@H]3O[C@H]1C[C@H](N)[C@H](O)[C@H](C)O1 [(7S,9S)-9-acetyl-7-[(2R,4S,5S,6S)-4-amino-5-hydroxy-6-methyloxan-2-yl]oxy-6,9,11-trihydroxy-4-methoxy-8,10-dihydro-7H-tetracene-5,12-dione;hydrochloride]
26 | 1.49 | Cc1ccc(C(=O)CC=Nc2ccccn2)cc1 [(E)-1-(4-methylphenyl)-3-(2-pyridinylamino)-2-propen-1-one]
27 | 4.88 | O=C(CC=Nc1ccccn1)c1ccc(Cl)cc1 [(Z)-1-(4-chlorophenyl)-3-(2-pyridinylamino)-2-propen-1-one]
28 | 4.03 | O=S(=O)(C/C(=C/CO)S(=O)(=O)c1ccccc1)c1ccccc1 [(Z)-3,4-bis(benzenesulfonyl)but-2-en-1-ol]
29 | 1.5 | O=C(CC=Nc1ccc2c(c1)OCO2)c1ccccn1 [(Z)-3-(1,3-benzodioxol-5-ylamino)-1-(2-pyridinyl)-2-propen-1-one]
30 | 13.2 | CCOC(=O)c1[n-]c2ccccc2c1[N+]#N [(Z)-(3-diazonio-2-indolylidene)-ethoxymethanolate]
31 | > 3.67 | COc1ccc(C2=Nn3c(nnc3-c3ccccc3OC)SC2)cc1OC [BMCL181297 Compound 5A]
32 | 1.18 | COc1cccc2c1C(=O)c1c(O)c3c(c(O)c1C2=O)C[C@@](O)(C(=O)CO)C[C@@H]3O[C@H]1C[C@H](N)[C@H](O)[C@H](C)O1 [MLS000028393]
33 | 7.64 | CCOc1cc(C(=O)CSc2nnc(CNc3ccc(Cl)cc3)o2)ccc1NC(=O)CC [MLS000032332]
34 | 5.43 | Nc1ccc(-c2nc3c(Cl)cc(N)cc3[nH]2)cc1 [MLS000034140]
35 | 3.29 | Cc1cccc(NC(=O)CSc2nnc(-c3cc(C)n(-c4ccccc4)c3C)o2)c1C [MLS000036049]
36 | 5.26 | COc1cccc(C(=O)c2sc(NC(C)C)nc2N)c1 [MLS000036929]
37 | 6.77 | CC(=O)c1sc(NC(=O)C2(F)C(F)(F)C(F)(F)C(F)(F)C(F)(F)C2(F)F)nc1C [MLS000040071]
38 | 2.27 | COc1ccc(CCNc2ncnc3c2oc2ccccc23)cc1OC [MLS000041708]
39 | 4 | COc1ccc(C=Nn2nnc3ccccc32)cc1 [MLS000043825]
40 | 6.41 | CS(=O)(=O)c1nc(-c2cccs2)cc(C(F)(F)F)n1 [MLS000044645]
41 | 3.9 | Cc1ccc(NC(=O)Cc2nn(C)c(=O)c3ccccc23)cc1F [MLS000047015]
42 | 6.3 | Cn1nc(CC(=O)Nc2ccc3c(c2)OCCO3)c2ccccc2c1=O [MLS000047020]
43 | 6.74 | CCn1c2ccccc2c2cc(NC(=O)CSc3nnnn3-c3ccccc3)ccc21 [MLS000051054]

Row | Structure (SMILES) | IC50 [µM]
44 | C[C@@]1(CO)[C@H](O)CC[C@@]2(C)[C@H]1CC[C@H]1C[C@@H]3C[C@@]12CC[C@]3(O)CO [6,13-di(hydroxymethyl)-2,6-dimethyl-(1S,2S,5R,6R,7R,10S,12R,13R)-tetracyclo[10.3.1.01,10.02,7]hexadecane-5,13-diol (Aphidicolin)] | 0.519
45 | C[C@H]1CCCC=CC2C[C@H](O)CC2[C@H](O)C=CC(=O)O1 (stereo partly drawn) [(7S,12R,15S)-12,15-dihydroxy-7-methyl-8-oxabicyclo[11.3.0]hexadeca-2,10-dien-9-one] | 8.95
46 | COc1cc2nc(CN3CC=C(c4ccccc4)CC3)nc(O)c2cc1OC [MLS000053305] | 2.36

same assay, conditions: inactive by the depositor's call

Row | IC50 [µM] | Structure (SMILES)
47 | 10.7 | COc1cccc(Cn2c(NCc3ccco3)nc3c2c(=O)n(C)c(=O)n3C)c1 [8-(2-furanylmethylamino)-7-[(3-methoxyphenyl)methyl]-1,3-dimethylpurine-2,6-dione]
48 | 10.6 | CCCOc1ccccc1C1CC(=O)Nc2cc3c(cc21)OCCO3 (stereo not drawn) [9-(2-propoxyphenyl)-2,3,8,9-tetrahydro[1,4]dioxino[2,3-g]quinolin-7(6H)-one]
49 | 23.4 | COc1ccc(CNc2cc(C)nc3ncnn23)c(OC)c1 [(2,4-Dimethoxy-benzyl)-(5-methyl-[1,2,4]triazolo[1,5-a]pyrimidin-7-yl)-amine]
50 | 10.6 | Cc1ccc2c(c1)nnn2C1CCN(S(=O)(=O)c2ccc(C(=O)N3C(C)CCCC3C)cc2)CC1 (stereo not drawn) [(2,6-Dimethyl-piperidin-1-yl)-{4-[4-(5-methyl-benzotriazol-1-yl)-piperidine-1-sulfonyl]-phenyl}-methanone]
51 | 23.1 | Cc1nc(NC(C)c2ccccc2)c2oc3ccccc3c2n1 (stereo not drawn) [(2-methylbenzofuro[3,2-d]pyrimidin-4-yl)-(1-phenylethyl)amine]
52 | 11.6 | CCc1c(C)nc2ncnn2c1NCCc1ccc(OC)cc1 [(6-Ethyl-5-methyl-[1,2,4]triazolo[1,5-a]pyrimidin-7-yl)-[2-(4-methoxy-phenyl)-ethyl]-amine]
53 | 14 | Cc1ccccc1OCC(=O)Nc1ccc(N2CCN(C(=O)C(C)C)CC2)c(Cl)c1 [MLS000034491]
54 | 10.8 | CS(=O)(=O)c1nc(-c2ccco2)cc(C(F)(F)F)n1 [MLS000044646]
55 | 21.1 | Cc1noc(C)c1S(=O)(=O)Nc1ccc(C(=O)N2CCN(c3ccc(Cl)cc3)CC2)cc1 [MLS000045033]
56 | 12.2 | Cc1ccc(F)cc1NC(=O)Cc1nn(C)c(=O)c2ccccc12 [MLS000047013]
57 | 18.5 | N#C/C(=C/c1ccc(N2CCCCCC2)o1)c1ccc(F)cc1 [MLS000051438]

Row | Structure (SMILES) | IC50 [µM]
58 | COc1cccc(OC)c1C1=NCC(=O)Nc2c1oc1ccc(Br)cc21 [9-bromanyl-5-(2,6-dimethoxyphenyl)-1,3-dihydro-[1]benzofuro[3,2-e][1,4]diazepin-2-one] | 15.4
